Experimental data from ChEMBL document CHEMBL5512651, “Synthesis and biological evaluation of 4-imidazolidinone-containing compounds as potent inhibitors of the MDM2/p53 interaction” (Eur J Med Chem, 2024).
Active and inactive are the calls of the source. The rule behind the calls is not given here.

Experiments:
[1] = test system: HCT-116; assay: cells; conditions: Homo sapiens, HCT-116, 96 h
[2] = test system: MOLM-13; assay: cells; conditions: Homo sapiens, MOLM-13, 48 h
[3] = biological target: Tumour suppressor protein p53/Mdm4 (Homo sapiens, UniProt O15151); assay: Inhibition of MDM4/p53 (unknown origin) interaction by fluorescence polarization assay; format: protein assay
Chain of Tumour suppressor protein p53/Mdm4 (P04637 whole entry): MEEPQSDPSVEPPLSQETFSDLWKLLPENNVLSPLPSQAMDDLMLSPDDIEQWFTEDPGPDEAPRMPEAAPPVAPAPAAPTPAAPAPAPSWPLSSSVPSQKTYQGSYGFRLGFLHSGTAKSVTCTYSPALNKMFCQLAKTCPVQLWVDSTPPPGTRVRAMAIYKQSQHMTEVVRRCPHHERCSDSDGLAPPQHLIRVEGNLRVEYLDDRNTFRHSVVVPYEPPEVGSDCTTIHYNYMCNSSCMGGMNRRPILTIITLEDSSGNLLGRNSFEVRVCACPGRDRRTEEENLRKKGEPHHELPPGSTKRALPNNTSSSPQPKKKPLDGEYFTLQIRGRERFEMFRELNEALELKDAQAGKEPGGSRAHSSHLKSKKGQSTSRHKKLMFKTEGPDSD
Chain of Tumour suppressor protein p53/Mdm4 (O15151 whole entry): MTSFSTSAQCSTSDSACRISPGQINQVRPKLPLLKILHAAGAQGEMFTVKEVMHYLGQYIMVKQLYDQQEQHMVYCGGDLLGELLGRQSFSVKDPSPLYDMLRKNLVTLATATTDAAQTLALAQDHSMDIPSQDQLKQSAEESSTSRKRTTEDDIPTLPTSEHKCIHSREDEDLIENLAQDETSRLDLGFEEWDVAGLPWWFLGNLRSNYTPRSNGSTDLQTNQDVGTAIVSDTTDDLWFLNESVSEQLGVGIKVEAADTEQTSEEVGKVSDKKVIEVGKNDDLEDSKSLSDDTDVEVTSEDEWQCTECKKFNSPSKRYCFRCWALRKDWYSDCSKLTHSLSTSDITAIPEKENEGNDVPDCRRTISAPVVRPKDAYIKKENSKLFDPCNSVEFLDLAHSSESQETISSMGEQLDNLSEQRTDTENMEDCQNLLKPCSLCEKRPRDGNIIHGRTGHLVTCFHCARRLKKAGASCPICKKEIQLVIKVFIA

[4] = biological target: Tumour suppressor p53/oncoprotein Mdm2 (Homo sapiens, UniProt Q00987); assay: Inhibition of MDM2/p53 (unknown origin) interaction by fluorescence polarization assay; format: protein assay
Chain of Tumour suppressor p53/oncoprotein Mdm2 (P04637 whole entry): as the sequence (P04637 whole entry) above
Chain of Tumour suppressor p53/oncoprotein Mdm2 (Q00987 whole entry): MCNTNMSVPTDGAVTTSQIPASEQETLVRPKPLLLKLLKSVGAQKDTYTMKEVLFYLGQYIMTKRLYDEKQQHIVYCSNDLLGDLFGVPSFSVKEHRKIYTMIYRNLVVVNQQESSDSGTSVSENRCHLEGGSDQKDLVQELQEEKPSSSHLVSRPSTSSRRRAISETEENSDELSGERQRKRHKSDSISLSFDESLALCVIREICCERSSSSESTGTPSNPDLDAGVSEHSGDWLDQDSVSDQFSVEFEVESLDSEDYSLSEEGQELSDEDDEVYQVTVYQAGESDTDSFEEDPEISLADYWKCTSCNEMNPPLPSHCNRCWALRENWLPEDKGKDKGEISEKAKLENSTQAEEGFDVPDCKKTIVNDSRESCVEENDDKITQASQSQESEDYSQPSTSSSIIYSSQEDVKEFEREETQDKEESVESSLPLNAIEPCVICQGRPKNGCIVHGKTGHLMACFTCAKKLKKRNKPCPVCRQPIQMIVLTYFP

[5] = biological target: Cellular tumor antigen p53 (Homo sapiens) (UniProt P04637); assay: Activation of p53 pathway in human MOLM-13 cells assessed as increase in MDM2 mRNA level incubated for 24 hrs by qPCR analysis; format: cell-based; conditions: filed as activator, dose 0.038-0.6 µM
Chain of Cellular tumor antigen p53 (Homo sapiens) (P04637 whole entry, looked up): as the sequence (P04637 whole entry) above

[6] = test system: A549; assay: cells; conditions: Homo sapiens, A549, 96 h
[7] = biological target: Cellular tumor antigen p53 (Homo sapiens) (UniProt P04637); assay: Activation of p53 pathway in human MOLM-13 cells assessed as increase in MDM2 level incubated for 24 hrs by Western blot analysis; format: cell-based; conditions: filed as activator, dose 0.038-0.6 µM
[8] = test system: MOLM-13; assay: Induction of apoptosis in human MOLM-13 cells assessed as increase in caspase-3 level at 0.15 to 0.6 uM incubated for 24 hrs by Western blot analysis; format: functional, cell-based; conditions: dose 0.15-0.6 µM
[9] = biological target: Cellular tumor antigen p53 (Homo sapiens) (UniProt P04637); assay: Activation of p53 pathway in human MOLM-13 cells assessed as increase in PUMA mRNA level incubated for 24 hrs by qPCR analysis; format: cell-based; conditions: filed as activator, dose 0.038-0.6 µM
[10] = test system: SW480; assay: cells; conditions: Homo sapiens, SW480, 96 h
[11] = Selectivity index, ratio of IC50 for HEK293 cells to IC50 for human HeLa cells; format: toxicity; conditions: HEK293 cells versus HeLa cells, read-out: Ratio IC50
[12] = biological target: Cellular tumor antigen p53 (Homo sapiens) (UniProt P04637); assay: Activation of p53 pathway in human MOLM-13 cells assessed as increase in p21 level incubated for 24 hrs by Western blot analysis; format: cell-based; conditions: filed as activator, dose 0.038-0.6 µM
[13] = test system: MOLM-13; assay: Induction of apoptosis in human MOLM-13 cells assessed as increase in PARP cleavage at 0.15 to 0.6 uM incubated for 24 hrs by Western blot analysis; format: functional, cell-based; conditions: dose 0.15-0.6 µM
[14] = test system: HeLa; assay: cells; conditions: Homo sapiens, 96 h
[15] = Antiproliferative activity against HEK293 cells incubated for 4 days by CCK8 assay; format: toxicity, cell-based; conditions: human
[16] = biological target: Cellular tumor antigen p53 (Homo sapiens) (UniProt P04637); assay: Activation of p53 pathway in human MOLM-13 cells assessed as increase in BAX mRNA level incubated for 24 hrs by qPCR analysis; format: cell-based; conditions: filed as activator, dose 0.038-0.6 µM
[17] = Selectivity index, ratio of IC50 for HEK293 cells to IC50 for human SW480 cells
[18] = Selectivity index, ratio of IC50 for HEK293 cells to IC50 for human A549 cells; format: toxicity; conditions: HEK293 cells versus A549 cells, read-out: Ratio IC50
[19] = biological target: Cellular tumor antigen p53 (Homo sapiens) (UniProt P04637); assay: Activation of p53 pathway in human MOLM-13 cells assessed as increase in p21 mRNA level incubated for 24 hrs by qPCR analysis; format: cell-based; conditions: filed as activator, dose 0.038-0.6 µM
[20] = biological target: Cellular tumor antigen p53 (Homo sapiens) (UniProt P04637); assay: Activation of p53 pathway in human MOLM-13 cells assessed as increase in p53 level incubated for 24 hrs by Western blot analysis; format: cell-based; conditions: filed as activator, dose 0.038-0.6 µM

Structure (SMILES): COc1cc(C(=O)O)ccc1N1CN2[C@@H](CC(C)(C)C)[C@@]3(CNc4cc(Cl)ccc43)[C@@H](c3cccc(F)c3)[C@@H]2C1=O
- IC50 [1]: 137 nM
- IC50 [2]: 39.8 nM
- Ki [3]: 3950 nM
- Ki [4]: 1.2 nM

Structure (SMILES): COc1cc(C(=O)O)ccc1N1CN2[C@@H](CC(C)(C)C)[C@@]3(CNc4cc(Cl)ccc43)[C@@H](c3cccc(C)c3)[C@@H]2C1=O
- IC50 [1]: 844 nM
- IC50 [2]: 295 nM
- Ki [3]: 2170 nM
- Ki [4]: 5.2 nM

Structure (SMILES): COc1cc(C(=O)O)ccc1N1CN2[C@@H](CC(C)(C)C)[C@@]3(CNc4cc(Cl)ccc43)[C@@H](c3ccc(Cl)cc3)[C@@H]2C1=O
- IC50 [1]: 2580 nM
- IC50 [2]: 2200 nM
- Ki [3]: > 27000 nM
- Ki [4]: 27.9 nM

Structure (SMILES): COc1cc(C(=O)O)ccc1N1CN2[C@@H](CC3(C)CCC3)[C@@]3(CNc4cc(Cl)ccc43)[C@@H](c3cccc(Cl)c3)[C@@H]2C1=O
- IC50 [1]: 598 nM
- IC50 [2]: 380 nM
- Ki [3]: 1770 nM
- Ki [4]: 1 nM

Structure (SMILES): COc1cc(C(=O)O)ccc1N1CN2[C@@H](CC3(C)CCCCC3)[C@@]3(CNc4cc(Cl)ccc43)[C@@H](c3cccc(Cl)c3)[C@@H]2C1=O
- IC50 [1]: 136 nM
- IC50 [2]: 35.5 nM
- Ki [3]: > 27000 nM
- Ki [4]: 2.7 nM

Structure (SMILES): COc1cc(C(=O)O)ccc1N1CN2[C@@H](CC3(C)CCOCC3)[C@@]3(CNc4cc(Cl)ccc43)[C@@H](c3cccc(Cl)c3)[C@@H]2C1=O
- IC50 [1]: 562 nM
- IC50 [2]: 139 nM
- Ki [3]: 3370 nM
- Ki [4]: 2.7 nM

Structure (SMILES): COc1cc(C(=O)O)ccc1N1CN2[C@@H](CC(C)(C)C)[C@@]3(CNc4cc(Cl)ccc43)[C@@H](c3ccccc3F)[C@@H]2C1=O
- IC50 [1]: 3900 nM
- IC50 [2]: 1640 nM
- Ki [3]: > 27000 nM
- Ki [4]: 14.8 nM

Structure (SMILES): COc1cc(C(=O)O)ccc1N1CN2[C@@H](CC(C)(C)C(C)C)[C@@]3(CNc4cc(Cl)ccc43)[C@@H](c3cccc(Cl)c3)[C@@H]2C1=O
- IC50 [1]: 88.7 nM
- IC50 [2]: 33.1 nM
- Ki [3]: 1120 nM
- Ki [4]: 1.3 nM

Structure (SMILES): COc1cc(C(=O)O)ccc1N1CN2[C@@H](CC(C)(C)C)[C@@]3(CNc4ccc(Cl)cc43)[C@@H](c3cccc(Cl)c3)[C@@H]2C1=O
- IC50 [1]: 8620 nM
- IC50 [2]: 2580 nM
- Ki [3]: > 27000 nM
- Ki [4]: 67.4 nM

Structure (SMILES): COc1cc(C(=O)O)ccc1N1CN2[C@@H](CC3(C)CCCC3)[C@@]3(CNc4cc(Cl)ccc43)[C@@H](c3cccc(Cl)c3)[C@@H]2C1=O
- IC50 [1]: 121 nM
- IC50 [2]: 17 nM
- Ki [3]: 734 nM
- Ki [4]: 0.6 nM

Structure (SMILES): COc1cc(C(=O)O)ccc1N1CN2[C@@H](CC(C)(C)C)[C@@]3(CNc4cc(Cl)ccc43)[C@@H](c3cccc(F)c3F)[C@@H]2C1=O
- IC50 [1]: 285 nM
- IC50 [2]: 56.5 nM
- Ki [3]: > 27000 nM
- Ki [4]: 3.1 nM

Structure (SMILES): COc1cc(C(=O)O)ccc1N1CN2[C@@H](CC(C)(C)C)[C@@]3(CNc4cc(Cl)ccc43)[C@@H](c3ccc(F)cc3)[C@@H]2C1=O
- IC50 [1]: 1300 nM
- IC50 [2]: 529 nM
- Ki [3]: > 27000 nM
- Ki [4]: 9.6 nM

Structure (SMILES): COc1cc(C(=O)O)ccc1N1CN2[C@@H](CC(C)(C)C)[C@@]3(CNc4cc(Cl)cnc43)[C@@H](c3cccc(Cl)c3)[C@@H]2C1=O
- IC50 [1]: 610 nM
- IC50 [2]: 204 nM
- Ki [3]: 3630 nM
- Ki [4]: 1.2 nM

Structure (SMILES): COc1cc(C(=O)O)ccc1N1CN2[C@@H](CC(C)(C)C)[C@@]3(CNc4cc(Cl)ccc43)[C@@H](c3cccc(Cl)c3Cl)[C@@H]2C1=O
- IC50 [1]: 2560 nM
- IC50 [2]: 1370 nM
- Ki [3]: 5000 nM
- Ki [4]: 7.6 nM

Structure (SMILES): COc1cc(C(=O)O)ccc1N1CN2[C@@H](CC(C)(C)C)[C@@]3(CNc4cc(Cl)ccc43)[C@@H](c3ccccc3Cl)[C@@H]2C1=O
- IC50 [1]: 9060 nM
- IC50 [2]: 5490 nM
- Ki [3]: > 27000 nM
- Ki [4]: 32.8 nM

Structure (SMILES): COc1cc(C(=O)O)ccc1N1CN2[C@@H](CC(C)(C)C)[C@@]3(CNc4cc(Cl)ccc43)[C@@H](c3cccc(C(F)(F)F)c3)[C@@H]2C1=O
- IC50 [1]: 6860 nM
- IC50 [2]: 6280 nM
- Ki [3]: 5740 nM
- Ki [4]: 50.5 nM

Structure (SMILES): COc1cc(C(=O)O)ccc1N1CN2[C@@H](CC(C)(C)C)[C@@]3(CNc4ccc(Cl)cc43)[C@@H](c3ccccc3Cl)[C@@H]2C1=O
- IC50 [1]: 12700 nM
- IC50 [2]: 7280 nM
- Ki [3]: > 27000 nM
- Ki [4]: 1090 nM

Structure (SMILES): COc1cc(C(=O)O)ccc1N1CN2[C@@H](CC(C)(C)C)[C@@]3(CNc4ccc(Cl)cc43)[C@@H](c3cccc(Cl)c3Cl)[C@@H]2C1=O
- IC50 [1]: 9740 nM
- IC50 [2]: 7590 nM
- Ki [3]: > 27000 nM
- Ki [4]: 152 nM

Structure (SMILES): CCC(C)(C)C[C@@H]1N2CN(c3ccc(C(=O)O)cc3OC)C(=O)[C@H]2[C@H](c2cccc(Cl)c2)[C@]12CNc1cc(Cl)ccc12
- Activity [5]: Dose-Dependent Effect
- IC50 [6]: 102 nM
- Activity [7]: Dose-Dependent Effect
- IC50 [1]: 28.5 nM
- Activity [8]: Active
- IC50 [2]: 5.5 nM
- Activity [9]: Dose-Dependent Effect
- IC50 [10]: 4920 nM
- selectivity ratio [11]: 0.8
- Activity [12]: Dose-Dependent Effect
- Activity [13]: Active
- IC50 [14]: 11800 nM
- IC50 at 4 days [15]: 9530 nM
- Activity [16]: Dose-Dependent Effect
- Ratio IC50 [17]: 1.9
- Ki [3]: 1130 nM
- Ki [4]: 1 nM
- selectivity ratio [18]: 93
- Activity [19]: Dose-Dependent Effect
- Activity [20]: Dose-Dependent Effect

Structure (SMILES): COc1cc(C(=O)O)ccc1N1CN2[C@@H](CC(C)(C)C)[C@@]3(CNc4ccc(Cl)cc43)[C@@H](c3ccc(Cl)cc3)[C@@H]2C1=O
- IC50 [1]: 12800 nM
- IC50 [2]: 8400 nM
- Ki [3]: > 27000 nM
- Ki [4]: > 27000 nM

Structure (SMILES): CCN1[C@@H](CC(C)(C)C)[C@@]2(CNc3cc(Cl)ccc32)[C@@H](c2cccc(Cl)c2)[C@@H]1C(=O)Nc1ccc(C(=O)O)cc1OC
- IC50 [1]: 13.6 nM
- IC50 [2]: 0.2 nM

Structure (SMILES): COc1cc(C(=O)O)ccc1N1CN2[C@@H](CC(C)(C)C)[C@@]3(CNc4cc(Cl)ccc43)[C@@H](c3cccc(Cl)c3F)[C@@H]2C1=O
- IC50 [1]: 49.7 nM
- IC50 [2]: 0.9 nM
- Ki [3]: 3110 nM
- Ki [4]: 3.1 nM

Structure (SMILES): CCC(C)(CC)C[C@@H]1N2CN(c3ccc(C(=O)O)cc3OC)C(=O)[C@H]2[C@H](c2cccc(Cl)c2)[C@]12CNc1cc(Cl)ccc12
- IC50 [1]: 165 nM
- IC50 [2]: 28.3 nM
- Ki [3]: 854 nM
- Ki [4]: 1.2 nM

Structure (SMILES): COc1cccc([C@H]2[C@@H]3C(=O)N(c4ccc(C(=O)O)cc4OC)CN3[C@@H](CC(C)(C)C)[C@@]23CNc2cc(Cl)ccc23)c1
- IC50 [1]: 1420 nM
- IC50 [2]: 944 nM
- Ki [3]: > 27000 nM
- Ki [4]: 5.3 nM

Structure (SMILES): COc1cc(NC(=O)[C@@H]2N[C@@H](CC(C)(C)C)[C@](C#N)(c3ccc(Cl)cc3F)[C@H]2c2cccc(Cl)c2F)ccc1C(=O)O
- IC50 [6]: 373 nM
- IC50 [1]: 104 nM
- IC50 [2]: 24.8 nM
- IC50 [10]: 5460 nM
- IC50 [14]: 13200 nM
- IC50 at 4 days [15]: 9080 nM
- Ki [3]: 1690 nM

Structure (SMILES): CC(C)(C)C[C@@H]1N[C@@H](C(=O)N[C@H]2CC[C@H](O)CC2)[C@H](c2cccc(Cl)c2F)[C@]12C(=O)Nc1cc(Cl)ccc12 [SAR-405838]
- IC50 [1]: 227 nM
- IC50 [2]: 115 nM
- Ki [3]: 36800 nM
